In PubChem BioAssay (NCI):
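A five-concentration, 48-hour dose response in 96-well plates underlies each endpoint, interpolated linearly between surrounding concentrations. The concentration for 50% growth inhibition is given as GI50. At the TGI there is no net growth.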

How the values were obtained:
Test in all cases: NCI tumour cell line growth inhibition, 48 h
ACHN renal = system: ACHN renal
CAKI-1 renal = system: CAKI-1 renal
HCT-116 colon = system: HCT-116 colon
HT29 colon = system: HT29 colon
MDA-MB-435 = system: MDA-MB-435
MOLT-4 leukemia = system: MOLT-4 leukemia
RPMI-8226 leukemia = system: RPMI-8226 leukemia
SF-539 CNS = system: SF-539 CNS
SK-MEL-28 melanoma = system: SK-MEL-28 melanoma
TK-10 renal = system: TK-10 renal

Structure (SMILES) | GI50 (ACHN renal) [µM] | TGI (ACHN renal) [µM] | GI50 (CAKI-1 renal) [µM] | TGI (CAKI-1 renal) [µM] | GI50 (HCT-116 colon) [µM] | TGI (HCT-116 colon) [µM] | GI50 (HT29 colon) [µM] | TGI (HT29 colon) [µM] | GI50 (MDA-MB-435) [µM] | TGI (MDA-MB-435) [µM] | GI50 (MOLT-4 leukemia) [µM] | TGI (MOLT-4 leukemia) [µM] | GI50 (RPMI-8226 leukemia) [µM] | TGI (RPMI-8226 leukemia) [µM] | GI50 (SF-539 CNS) [µM] | TGI (SF-539 CNS) [µM] | GI50 (SK-MEL-28 melanoma) [µM] | TGI (SK-MEL-28 melanoma) [µM] | GI50 (TK-10 renal) [µM] | TGI (TK-10 renal) [µM]
CCCCCCCCCCCCCCCC1=NCC[N+]1(CCO)CCO | 2.53 | 6.64 | 3.58 | 14.6 | 1.59 | 2.94 | 2.57 | 9.13 | 2.1 | 4.4 | 1.8 | 4.15 | 4.89 | 40.5 | 1.91 | 4 | 5.1 | 16.8 | 3.55 | 13.6
Cc1nc([N+](=O)[O-])cn1-c1nc2ccccn2c1[N+](=O)[O-] |  | > 100 |  | > 100 |  | > 100 |  | > 100 |  | > 100 |  |  |  | > 100 |  | > 100 |  | > 100 |  | > 100
O=c1oc2ccc(I)cc2c(=O)n1-c1ccc(Br)cc1F | 0.751 | 10.7 | 0.375 | 3.23 | 0.621 | 2.38 | 3.3 | 13.5 | 0.938 | 6.42 | 1.59 | 5.18 | 0.398 | 2.57 | 0.632 | 4.99 | 0.404 | 2.03 | 3.81 | 10.2
COC(COC(N)=O)C1=C(N2CC2)C(=O)C(C)=C(N2CC2)C1=O (configuration not stated) |  | 0.0449 |  | 0.085 |  | 0.134 |  | 0.521 |  | 1.42 |  | 7.26 |  | 3.16 |  | 0.202 |  | 0.484 |  | 2.64
O=c1c2ccccc2sc2c(NCCCNCCO)nc3ccccc3c12 | 1.39 | 2.81 | 1.6 | 3.2 | 1.3 | 2.6 | 1.51 | 2.97 | 1.77 | 3.25 | 1.26 | 3.32 | 1.92 | 4.89 | 1.65 | 3.23 | 1.81 | 3.52 | 1.91 | 3.38
O=C1N[C@@H]2[C@@H](O)[C@@H](O)[C@H](O)C[C@H]2c2cc3c(c(O)c21)OCCO3 | 0.306 | 1.46 | 0.989 | 6.14 | 0.107 | 1.22 | 0.315 | 2.08 | 0.269 | 1.22 | 0.193 | 3.16 | 0.256 | 0.91 | 0.254 | 0.928 | 0.274 | 1.23 | 0.684 | 5.09
O=C(NCCCCN1CCOCC1)c1cc2ccccc2o1 | > 100 | > 100 | > 100 | > 100 | > 100 | > 100 | > 100 | > 100 | > 100 | > 100 |  |  |  |  | > 100 | > 100 | > 100 | > 100 | > 100 | > 100
CCOC(=O)C1=CCCC[C@H]1S(=O)(=O)Nc1ccc(F)cc1Cl | 29 | > 100 | 31.5 | > 100 | 25 | 95.3 | 41.1 | > 100 | 21.1 | 69.9 | 27.3 | 92.2 | 20.5 | 67.6 | 22.8 | 55.2 | 28 | > 100 | 33 | > 100
O=C1NC(=C(Cl)Cl)/C(=N/S(=O)(=O)N2CCCCC2)N1 | 1.96 | 3.42 | 1.77 | 3.26 | 1.85 | 3.39 | 1.99 | 3.98 | 1.98 | 4.21 |  |  | 0.553 | 4.23 | 2.2 | 5.55 | 1.92 | 3.56 | 4.82 | > 100
COc1ccc2c(c1)C(=O)c1c-2n(CCCN(C)C)c(=O)c2ccccc12 | 0.116 | 0.503 | 0.243 | 4.9 | 0.213 | 1.42 | 0.275 | 10.9 | 0.557 | 3.27 | < 0.0307 | 12 | 0.165 | 0.532 | 0.282 | 0.979 | 1.77 | 8.12 | 0.722 | 9.32
O=C(O)c1cc(-c2ccc3cc4c(cc3c2)OCO4)nc2ccccc12 |  | > 100 |  |  |  | > 100 |  | > 100 |  | > 100 |  | > 100 |  | > 100 |  | > 100 |  | > 100 |  | > 100
CNC(=O)c1c(C)oc2cc(Oc3ncnc4cc(OC)c(OC)cc34)ccc12 | > 100 | > 100 | > 100 | > 100 | > 100 | > 100 | > 100 | > 100 | > 100 | > 100 | > 100 | > 100 | > 100 | > 100 | 2.03 | > 100 | > 100 | > 100 | > 100 | > 100
Nc1nc(/C=C\c2ccc([N+](=O)[O-])s2)nc(N2CCN(c3ccccc3)CC2)n1 | 19 | 41.4 | 18.1 | 39.1 | 17.2 | 31.5 | 27.5 | 70.4 | 19.2 | 43.6 | 23.1 | 75.3 | 22.9 | 74 | 40.9 | > 100 | 24.9 | 47.1 | 72.1 | > 100
